Reference: patent publication US10428080B2, “TBK/IKK inhibitor compounds and uses thereof” (Merck Patent GmbH, priority 2015, dated 2019)
Structures can show the parent of a compound that is named as a salt.

Legend:
IKKε = target: T1, IKKε (Homo sapiens, UniProt Q14164); assay: IKKe Biochemical Assay; details: read-out: IKKε IC50
T1 sequence (Q14164 1-716): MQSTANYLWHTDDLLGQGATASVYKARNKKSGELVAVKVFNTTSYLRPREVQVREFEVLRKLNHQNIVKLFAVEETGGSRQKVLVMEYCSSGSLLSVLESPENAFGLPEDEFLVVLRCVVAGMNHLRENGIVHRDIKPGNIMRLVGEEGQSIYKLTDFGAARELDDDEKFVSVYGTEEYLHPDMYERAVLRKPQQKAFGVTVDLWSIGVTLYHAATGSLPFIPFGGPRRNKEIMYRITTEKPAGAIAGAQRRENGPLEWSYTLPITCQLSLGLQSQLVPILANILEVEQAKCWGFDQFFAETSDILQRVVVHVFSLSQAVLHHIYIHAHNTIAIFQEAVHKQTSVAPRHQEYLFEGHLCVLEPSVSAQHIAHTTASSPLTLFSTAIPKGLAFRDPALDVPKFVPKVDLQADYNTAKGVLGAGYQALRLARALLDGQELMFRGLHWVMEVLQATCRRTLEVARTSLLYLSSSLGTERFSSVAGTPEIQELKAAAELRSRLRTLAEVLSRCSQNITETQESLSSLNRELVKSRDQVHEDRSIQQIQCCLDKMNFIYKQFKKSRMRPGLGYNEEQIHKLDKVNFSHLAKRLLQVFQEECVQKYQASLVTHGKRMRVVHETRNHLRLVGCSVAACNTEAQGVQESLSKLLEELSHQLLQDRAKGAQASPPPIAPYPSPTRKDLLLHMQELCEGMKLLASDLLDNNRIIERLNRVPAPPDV
Method in brief: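 Activity was measured as mobility-shift separation of phosphorylated from unphosphorylated substrate on a LabChip EZ Reader. Compound was titrated from 30 uM final in 10 points, 1:4 steps, with 1% DMSO, and enzyme plus substrate reacted 90 min at 25° C before stop buffer. Control wells held 10 uM staurosporine.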

TBK1 = target: T2, TBK1 (Homo sapiens, UniProt Q9UHD2); assay: TBK Biochemical Assay; details: read-out: TBK1 IC50
T2 sequence (Q9UHD2 1-729): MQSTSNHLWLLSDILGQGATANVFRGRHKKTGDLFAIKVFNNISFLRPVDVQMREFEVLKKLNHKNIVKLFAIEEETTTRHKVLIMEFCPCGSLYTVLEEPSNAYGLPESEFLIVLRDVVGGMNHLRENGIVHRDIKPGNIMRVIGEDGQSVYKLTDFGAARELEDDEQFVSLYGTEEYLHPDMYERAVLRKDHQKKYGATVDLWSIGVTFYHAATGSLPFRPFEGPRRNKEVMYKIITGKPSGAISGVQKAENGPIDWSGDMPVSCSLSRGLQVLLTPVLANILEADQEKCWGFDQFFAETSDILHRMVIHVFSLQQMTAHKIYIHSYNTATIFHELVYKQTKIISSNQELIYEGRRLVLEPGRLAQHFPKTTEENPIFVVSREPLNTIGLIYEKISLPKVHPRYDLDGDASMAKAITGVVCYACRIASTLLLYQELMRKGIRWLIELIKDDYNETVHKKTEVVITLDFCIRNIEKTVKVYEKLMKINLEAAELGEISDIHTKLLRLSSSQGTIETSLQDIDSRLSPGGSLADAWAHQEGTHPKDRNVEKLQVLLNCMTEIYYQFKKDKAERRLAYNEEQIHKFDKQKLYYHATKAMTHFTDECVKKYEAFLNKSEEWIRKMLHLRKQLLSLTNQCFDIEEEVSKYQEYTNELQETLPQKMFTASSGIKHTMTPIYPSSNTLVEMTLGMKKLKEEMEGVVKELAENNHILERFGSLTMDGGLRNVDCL
Method in brief: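 Caliper LabChip mobility-shift readout of substrate and product after 90 min of TBK1 reaction at 25° C and stop-buffer addition. Compounds tested in 1:4 serial dilution over 10 points from 30 uM final at 1% DMSO; staurosporine 10 uM final defines full inhibition.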

SMILES	IC50 (IKKε)	IC50 (TBK1)
COc1cc(C(=O)N2CC3CC(C2)O3)ccc1-c1cc2nccc(-c3ccc(OC4CCOCC4)c(C#N)c3)c2o1 [Compound 6, 5-{2-[2-Methoxy-4-(6-oxa-3-aza-bicyclo[3.1.1]heptane-3-carbonyl)-phenyl]-furo[3,2-b]pyridin-7-yl}-2-(tetrahydro-pyran-4-yloxy)-benzonitrile]	< 100 nM	< 100 nM
CCc1cc(C(=O)N(C)C)ccc1-c1cc2nccc(-c3ccc(OC4CCOCC4)c(C#N)c3)c2o1 [Compound 263, 4-(7-(3-cyano-4-(tetrahydro-2H-pyran-4-yloxy)phenyl)furo[3,2-b]pyridin-2-yl)-3-ethyl-N,N-dimethylbenzamide]	< 100 nM	< 100 nM
COc1cc(C(=O)N2CC3CC2CO3)ccc1-c1cc2nccc(-c3ccc(NC4CCOCC4)c(C#N)c3)c2o1 (stereo not drawn) [Compound 85, 5-{2-[2-Methoxy-4-(2-oxa-5-aza-bicyclo[2.2.1]heptane-5-carbonyl)-phenyl]-furo[3,2-b]pyridin-7-yl}-2-(tetrahydro-pyran-4-ylamino)-benzonitrile]	< 100 nM	< 100 nM
CN(C)C(=O)c1ccc(-c2cc3nccc(-c4ccc(NC5C6COCC65)c(C#N)c4)c3o2)cc1 (stereo not drawn) [Compound 217, 4-(7-(4-(3-oxa-bicyclo[3.1.0]hexan-6-ylamino)-3-cyanophenyl)furo[3,2-b]pyridin-2-yl)-N,N-dimethylbenzamide hydrochloride]	100 to 1000 nM	100 to 1000 nM
COc1cc(C(=O)N2CC(S(C)(=O)=O)C2)ccc1-c1cc2nccc(-c3ccc(OC4CCOCC4)c(C#N)c3)c2o1 [Compound 26, 5-{2-[4-(3-Methanesulfonyl-azetidine-1-carbonyl)-2-methoxy-phenyl]-furo[3,2-b]pyridin-7-yl}-2-(tetrahydro-pyran-4-yloxy)-benzonitrile]	< 100 nM	< 100 nM
CCN(CC)C(=O)c1ccc(-c2cc3nccc(-c4ccc(NC5CCOCC5)c(C#N)c4)c3o2)c(OC)c1 [Compound 259, 4-(7-(3-cyano-4-(tetrahydro-2H-pyran-4-ylamino)phenyl)furo[3,2-b]pyridin-2-yl)-N,N-diethyl-3-methoxybenzamide]	< 100 nM	< 100 nM
COc1cc(C(=O)N(C)CCO)ccc1-c1cc2ncc(C3CC3)c(-c3ccc(NC4CCOCC4)c(C#N)c3)c2o1 [Compound 305, 4-(7-[3-cyano-4-[(oxan-4-yl)amino]phenyl]-6-cyclopropylfuro[3,2-b]pyridin-2-yl)-N-(2-hydroxyethyl)-3-methoxy-N-methylbenzamide]	> 5000 nM	> 5000 nM
COc1cc(C(=O)N(C)C2CC2)ccc1-c1cc2nccc(-c3ccc(OC4CCOCC4)c(C#N)c3)c2o1 [Compound 60, 4-{7-[3-Cyano-4-(tetrahydro-pyran-4-yloxy)-phenyl]-furo[3,2-b]pyridin-2-yl}-N-cyclopropyl-3-methoxy-N-methyl-benzamide]	< 100 nM	< 100 nM
COc1cc(C(=O)N(C)C)ccc1-c1cc2nccc(Nc3ccc(OC4CCOCC4)c(C#N)c3)c2o1 [Compound 399, 4-(7-[[3-cyano-4-(oxan-4-yloxy)phenyl]amino]furo[3,2-b]pyridin-2-yl)-3-methoxy-N,N-dimethylbenzamide]	> 5000 nM	> 5000 nM
COc1cc(C(=O)N(C)C)ccc1-c1cc2nccc(-c3ccc(OC4CNC4)c(C#N)c3)c2o1 [Compound 128, 4-{7-[4-(Azetidin-3-yloxy)-3-cyano-phenyl]-furo[3,2-b]pyridin-2-yl}-3-methoxy-N,N-dimethyl-benzamide]	< 100 nM	< 100 nM
COc1cc(C(=O)N(C)CCO)cnc1-c1cc2ncc(C)c(-c3ccc(OC4CCOCC4)c(C#N)c3)c2o1 [Compound 330, 6-(7-(3-cyano-4-(tetrahydro-2H-pyran-4-yloxy)phenyl)-6-methylfuro[3,2-b]pyridin-2-yl)-N-(2-hydroxyethyl)-5-methoxy-N-methylnicotinamide]	1000 to 5000 nM	1000 to 5000 nM
N#Cc1cc(-c2ccnc3cc(-c4ccc(N)cc4)oc23)ccc1OC1CCOCC1 [Compound 126]	< 100 nM	< 100 nM
COc1cc(C(=O)N(C)CCO)ccc1-c1cc2nccc(-c3ccc(NC4CCOCC4)c(C#N)c3)c2o1 [Compound 230, 4-(7-(3-cyano-4-(tetrahydro-2H-pyran-4-ylamino)phenyl)furo[3,2-b]pyridin-2-yl)-N-(2-hydroxyethyl)-3-methoxy-N-methylbenzamide]	< 100 nM	< 100 nM
COc1cc(C(=O)NC2(C)CCNC2)ccc1-c1cc2nccc(-c3ccc(OC4CCOCC4)c(C#N)c3)c2o1 (stereo not drawn) [Compound 86, 4-{7-[3-Cyano-4-(tetrahydro-pyran-4-yloxy)-phenyl]-furo[3,2-b]pyridin-2-yl}-3-methoxy-N-(3-methyl-pyrrolidin-3-yl)-benzamide hydrochloride]	< 100 nM	< 100 nM
COc1cc(C(=O)N2CC[C@@H](O)C2)ccc1-c1cc2nccc(-c3ccc(NC4CCOCC4)c(C#N)c3)c2o1 [Compound 95, 5-{2-[4-((R)-3-Hydroxy-pyrrolidine-1-carbonyl)-2-methoxy-phenyl]-furo[3,2-b]pyridin-7-yl}-2-(tetrahydro-pyran-4-ylamino)-benzonitrile]	< 100 nM	< 100 nM
CN(C)C(=O)c1ccc(-c2cc3nccc(-c4ccc(OC5CCOCC5)c(C#N)c4)c3o2)c(F)c1 [Compound 238, 4-(7-(3-cyano-4-(tetrahydro-2H-pyran-4-yloxy)phenyl)furo[3,2-b]pyridin-2-yl)-3-fluoro-N,N-dimethylbenzamide]	< 100 nM	< 100 nM
COc1cc(C(=O)N2CC[C@H](O)C2)ccc1-c1cc2nccc(-c3ccc(NC4CCOCC4)c(C#N)c3)c2o1 [Compound 103, 5-{2-[4-((S)-3-Hydroxy-pyrrolidine-1-carbonyl)-2-methoxy-phenyl]-furo[3,2-b]pyridin-7-yl}-2-(tetrahydro-pyran-4-ylamino)-benzonitrile]	< 100 nM	< 100 nM
COc1cc(C(=O)N2C3COCC2CC(O)C3)ccc1-c1cc2nccc(-c3ccc(OC4CCOCC4)c(C#N)c3)c2o1 (stereo not drawn) [Compound 66, 5-{2-[4-(7-Hydroxy-3-oxa-9-aza-bicyclo[3.3.1]nonane-9-carbonyl)-2-methoxy-phenyl]-furo[3,2-b]pyridin-7-yl}-2-(tetrahydro-pyran-4-yloxy)-benzonitrile]	< 100 nM	< 100 nM
COc1cc(C(=O)N2CCCC(O)C2)ccc1-c1cc2nccc(-c3ccc(OC4CCOCC4)c(C#N)c3)c2o1 (stereo not drawn) [Compound 22, 5-{2-[4-(3-Hydroxy-piperidine-1-carbonyl)-2-methoxy-phenyl]-furo[3,2-b]pyridin-7-yl}-2-(tetrahydro-pyran-4-yloxy)-benzonitrile]	< 100 nM	< 100 nM
COc1cc(C(=O)N(C)C)cnc1-c1cc2nccc(-c3ccc(OC4CCOCC4)c(C#N)c3)c2o1 [Compound 274, 6-(7-(3-cyano-4-(tetrahydro-2H-pyran-4-yloxy)phenyl)furo[3,2-b]pyridin-2-yl)-5-methoxy-N,N-dimethylnicotinamide hydrochloride]	< 100 nM	< 100 nM
CN(C)C(=O)c1ccc(-c2cc3nccc(-c4ccc(N5CC[C@@H](N(C)C)C5)c(C#N)c4)c3o2)cc1 [Compound 172, 4-{7-[3-Cyano-4-((R)-3-dimethylamino-pyrrolidin-1-yl)-phenyl]-furo[3,2-b]pyridin-2-yl}-N,N-dimethyl-benzamide]	100 to 1000 nM	100 to 1000 nM
